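Dose response: 5 concentrations. Exposure: 48 h. Format: 96-well plates. Endpoint: linear interpolation; highest concentration if not reached. TGI is the concentration that stops growth completely.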

The first assay relates to MOLT-4 leukemia. Put plainly: NCI-60 cell line screen, 48 h.
The compound `CC1=C(C(=O)Nc2ccc([N+](=O)[O-])cc2)C(c2ccc(N(C)C)cc2)C(C(=O)Nc2ccc([N+](=O)[O-])cc2)=C(C)N1` had a TGI of 42.3 µM.

For the compound `O=C1C=CC(=Nc2ccc3c(c2)C(Br)c2ccccc2-3)O1` (configuration not stated), the TGI is greater than 100 µM.

Take `CN(CCC#N)c1ccc(/C=C2\SC(=S)NC2=O)cc1`: the TGI was greater than 100 µM.

A further assay concerns MDA-MB-435. As to the kind of experiment: NCI-60 cell line screen, 48 h.
In turn, `Nc1ccc2nc(-c3ccccn3)c(-c3ccccn3)nc2c1` returned a TGI greater than 100 µM.

For the compound `CN(CCC#N)c1ccc(/C=C2\SC(=S)NC2=O)cc1`, the TGI was greater than 100 µM.

Another assay deals with HL-60(TB) leukemia. As to the kind of experiment: NCI-60 cell line screen, 48 h.
As for `Nc1ccc2nc(-c3ccccn3)c(-c3ccccn3)nc2c1`, the TGI is greater than 100 µM.

Compound `CC1=C(C(=O)Nc2ccc([N+](=O)[O-])cc2)C(c2ccc(N(C)C)cc2)C(C(=O)Nc2ccc([N+](=O)[O-])cc2)=C(C)N1` had a TGI of 38.7 µM.

In the case of `O=C1C=CC(=Nc2ccc3c(c2)C(Br)c2ccccc2-3)O1` (configuration not stated), the TGI is greater than 100 µM.

Consider `CN(CCC#N)c1ccc(/C=C2\SC(=S)NC2=O)cc1`, for which the TGI was greater than 100 µM.

A further assay deals with T-47D breast. As to the kind of experiment: NCI-60 cell line screen, 48 h.
Take `Nc1ccc2nc(-c3ccccn3)c(-c3ccccn3)nc2c1`: the TGI is greater than 100 µM.

As for `CN(CCC#N)c1ccc(/C=C2\SC(=S)NC2=O)cc1`, the TGI is greater than 100 µM.

For the next assay, the system named is HOP-62 NSCLC. Put plainly: NCI-60 cell line screen, 48 h.
`CC1=C(C(=O)Nc2ccc([N+](=O)[O-])cc2)C(c2ccc(N(C)C)cc2)C(C(=O)Nc2ccc([N+](=O)[O-])cc2)=C(C)N1` showed a TGI of 27.5 µM.

On to `O=C1C=CC(=Nc2ccc3c(c2)C(Br)c2ccccc2-3)O1` (configuration not stated), for which the TGI was greater than 100 µM.

Consider `CN(CCC#N)c1ccc(/C=C2\SC(=S)NC2=O)cc1`, for which the TGI is greater than 100 µM.

For another assay, the system named is ACHN renal. As to the kind of experiment: NCI-60 cell line screen, 48 h.
The compound `Nc1ccc2nc(-c3ccccn3)c(-c3ccccn3)nc2c1` yielded a TGI greater than 100 µM.

Regarding `CC1=C(C(=O)Nc2ccc([N+](=O)[O-])cc2)C(c2ccc(N(C)C)cc2)C(C(=O)Nc2ccc([N+](=O)[O-])cc2)=C(C)N1`, the TGI amounted to 43.6 µM.

In the case of `O=C1C=CC(=Nc2ccc3c(c2)C(Br)c2ccccc2-3)O1` (configuration not stated), the TGI was greater than 100 µM.

Consider `CN(CCC#N)c1ccc(/C=C2\SC(=S)NC2=O)cc1`, for which the TGI is greater than 100 µM.

The next assay deals with DLD-1 colon. Put plainly: NCI-60 cell line screen, 48 h.
With `CC1=C(C(=O)Nc2ccc([N+](=O)[O-])cc2)C(c2ccc(N(C)C)cc2)C(C(=O)Nc2ccc([N+](=O)[O-])cc2)=C(C)N1`, the TGI was found to be 30 µM.

In turn, `O=C1C=CC(=Nc2ccc3c(c2)C(Br)c2ccccc2-3)O1` (configuration not stated) showed a TGI greater than 100 µM.

In the next assay the test system is M14 melanoma. Put plainly: NCI-60 cell line screen, 48 h.
`Nc1ccc2nc(-c3ccccn3)c(-c3ccccn3)nc2c1`: the TGI was greater than 100 µM.

In turn, `CC1=C(C(=O)Nc2ccc([N+](=O)[O-])cc2)C(c2ccc(N(C)C)cc2)C(C(=O)Nc2ccc([N+](=O)[O-])cc2)=C(C)N1` returned a TGI of 40.9 µM.

In turn, `O=C1C=CC(=Nc2ccc3c(c2)C(Br)c2ccccc2-3)O1` (configuration not stated) showed a TGI greater than 100 µM.

Regarding `CN(CCC#N)c1ccc(/C=C2\SC(=S)NC2=O)cc1`, the TGI was greater than 100 µM.

For the next assay, the system named is UACC-62 melanoma. As to the kind of experiment: NCI-60 cell line screen, 48 h.
In turn, `Nc1ccc2nc(-c3ccccn3)c(-c3ccccn3)nc2c1` came in with a TGI greater than 100 µM.

In turn, `O=C1C=CC(=Nc2ccc3c(c2)C(Br)c2ccccc2-3)O1` (configuration not stated) came in with a TGI greater than 100 µM.

On to `CN(CCC#N)c1ccc(/C=C2\SC(=S)NC2=O)cc1`, for which the TGI stood at 47.3 µM.

Another assay relates to IGROV1 ovarian. Put plainly: NCI-60 cell line screen, 48 h.
Turning to `Nc1ccc2nc(-c3ccccn3)c(-c3ccccn3)nc2c1`, the TGI was greater than 100 µM.

For `CC1=C(C(=O)Nc2ccc([N+](=O)[O-])cc2)C(c2ccc(N(C)C)cc2)C(C(=O)Nc2ccc([N+](=O)[O-])cc2)=C(C)N1`, the TGI came out at 61.9 µM.

In turn, `O=C1C=CC(=Nc2ccc3c(c2)C(Br)c2ccccc2-3)O1` (configuration not stated) yielded a TGI greater than 100 µM.

For the compound `CN(CCC#N)c1ccc(/C=C2\SC(=S)NC2=O)cc1`, the TGI is greater than 100 µM.

Another assay relates to NCI-H226 lung. Put plainly: NCI-60 cell line screen, 48 h.
`Nc1ccc2nc(-c3ccccn3)c(-c3ccccn3)nc2c1` registered a TGI greater than 100 µM.

Compound `CC1=C(C(=O)Nc2ccc([N+](=O)[O-])cc2)C(c2ccc(N(C)C)cc2)C(C(=O)Nc2ccc([N+](=O)[O-])cc2)=C(C)N1` registered a TGI of 42.3 µM.

Compound `CN(CCC#N)c1ccc(/C=C2\SC(=S)NC2=O)cc1` displayed a TGI greater than 100 µM.

The next assay deals with HCC-2998 colon. As to the kind of experiment: NCI-60 cell line screen, 48 h.
For the compound `Nc1ccc2nc(-c3ccccn3)c(-c3ccccn3)nc2c1`, the TGI was greater than 100 µM.

`CC1=C(C(=O)Nc2ccc([N+](=O)[O-])cc2)C(c2ccc(N(C)C)cc2)C(C(=O)Nc2ccc([N+](=O)[O-])cc2)=C(C)N1` came in with a TGI of 25.8 µM.

`O=C1C=CC(=Nc2ccc3c(c2)C(Br)c2ccccc2-3)O1` (configuration not stated) gave a TGI greater than 100 µM.

For `CN(CCC#N)c1ccc(/C=C2\SC(=S)NC2=O)cc1`, the TGI is greater than 100 µM.

A further assay has as its system SK-MEL-28 melanoma. As to the kind of experiment: NCI-60 cell line screen, 48 h.
In turn, `Nc1ccc2nc(-c3ccccn3)c(-c3ccccn3)nc2c1` came in with a TGI greater than 100 µM.

In turn, `CC1=C(C(=O)Nc2ccc([N+](=O)[O-])cc2)C(c2ccc(N(C)C)cc2)C(C(=O)Nc2ccc([N+](=O)[O-])cc2)=C(C)N1` yielded a TGI of 28.2 µM.

Regarding `O=C1C=CC(=Nc2ccc3c(c2)C(Br)c2ccccc2-3)O1` (configuration not stated), the TGI is greater than 100 µM.

Consider `CN(CCC#N)c1ccc(/C=C2\SC(=S)NC2=O)cc1`, for which the TGI was greater than 100 µM.

Another assay concerns HOP-92 NSCLC. Put plainly: NCI-60 cell line screen, 48 h.
On to `Nc1ccc2nc(-c3ccccn3)c(-c3ccccn3)nc2c1`, for which the TGI was greater than 100 µM.

`CC1=C(C(=O)Nc2ccc([N+](=O)[O-])cc2)C(c2ccc(N(C)C)cc2)C(C(=O)Nc2ccc([N+](=O)[O-])cc2)=C(C)N1`: the TGI worked out at 47.7 µM.

Consider `CN(CCC#N)c1ccc(/C=C2\SC(=S)NC2=O)cc1`, for which the TGI is greater than 100 µM.

In the next assay the test system is HCT-116 colon. Put plainly: NCI-60 cell line screen, 48 h.
Compound `Nc1ccc2nc(-c3ccccn3)c(-c3ccccn3)nc2c1` gave a TGI greater than 100 µM.

In turn, `O=C1C=CC(=Nc2ccc3c(c2)C(Br)c2ccccc2-3)O1` (configuration not stated) returned a TGI greater than 100 µM.

For the compound `CN(CCC#N)c1ccc(/C=C2\SC(=S)NC2=O)cc1`, the TGI was greater than 100 µM.

In a further assay the test system is DU-145 prostate. Put plainly: NCI-60 cell line screen, 48 h.
Consider `Nc1ccc2nc(-c3ccccn3)c(-c3ccccn3)nc2c1`, for which the TGI is greater than 100 µM.

`CN(CCC#N)c1ccc(/C=C2\SC(=S)NC2=O)cc1` had a TGI greater than 100 µM.

A further assay has as its system CCRF-CEM leukemia. As to the kind of experiment: NCI-60 cell line screen, 48 h.
For the compound `Nc1ccc2nc(-c3ccccn3)c(-c3ccccn3)nc2c1`, the TGI is greater than 100 µM.

In turn, `CC1=C(C(=O)Nc2ccc([N+](=O)[O-])cc2)C(c2ccc(N(C)C)cc2)C(C(=O)Nc2ccc([N+](=O)[O-])cc2)=C(C)N1` registered a TGI of 60.7 µM.
